Values joined by “and” are separate entries in the source; they are usually repeats but may differ in a detail not shown here. Identical values can stand only once.
What was measured:
[1] = test system: CD34+ cells from human umbilical cord blood; experiment: Culture of cord blood CD34+ cells towards the megakaryocytic lineage (StemSpan ACF + BS1), flow cytometry; assay type: cell-based; settings: for Percentage of cells bearing CD34+ / Percentage of cells bearing CD34+/CD41+ / Percentage of cells bearing CD34+/CD41− / Percentage of cells bearing CD41+ / Percentage of cells bearing CD41+/CD42+ / Percentage of cells bearing CD42+ / Percentage of cells bearing CD45RA+ / Percentage of cells bearing CD235+: ACF + BS1
Procedure: (§1) CD34+ cells were isolated from human umbilical cord blood by positive selection according to standard procedures. Purified CD34+ cells from either single units or pooled from several units of cord blood were seeded in 1 mL of the appropriate culture medium in 24-well plates at a density of approximately 10^5 cells/mL. Cells were maintained at a density of 10^5-10^6 cells/mL throughout the culture by dilution and/or medium replacement.
For culture and differentiation towards the megakaryocytic lineage, purified CD34+ cells were cultured in StemSpan™ ACF medium ([…]™ Technologies, Vancouver, BC, Canada) supplemented with antibiotics and the “BS1” cytokine cocktail described previously (Cortin et al, 2005), and cell counts were performed on days 6, 10, and 14.
(§2) Cell counts and viability were measured using the NucleoCounter NC-250™ Viability and Cell Count Assay system (ChemoMetec Inc., Davis, Calif.), according to the manufacturer's instructions.
(§3) Cell phenotypes were determined by flow cytometry on the indicated days using the following panel of labeled primary antibodies: CD34-FITC, CD45RA-APC, CD41a-APC, CD42b-PE, and CD235-PE.
CD34+ cells were isolated and cultured for differentiation towards the megakaryocytic lineage as generally described in Example 1.2. […] Flow cytometry was used to monitor the expansion of CD34+/CD41+ MKP cells over time, as described in Example 1.3.
More thorough cell phenotypic profiles of the CD34+ cells isolated and cultured in Example 2 were determined on days 6, 10 and 14 by flow cytometry as described in Example 1.3.

[2] = test system: CD34+ cells from human umbilical cord blood; experiment: CD34+ cell culture and expansion while limiting differentiation (StemSpan ACF + CC110), flow cytometry; assay type: cell-based
Procedure: as §1
For CD34+ cell culture and expansion while limiting differentiation, cells were grown in StemSpan™-ACF medium ([…]™ Technologies) supplemented with StemSpan™ CC110 cytokine cocktail ([…]™ Technologies), and counted on days 4, 7, 10, 14, 17, and 21.
as §2, §3
CD34+ cells were isolated and cultured in a medium suitable for maintaining their self-renewal while limiting their differentiation into progenitors (StemSpan™ ACF supplemented with StemSpan™ CC110 cytokine cocktail, as described in Example 1.2).
Cell phenotypic profiles of the expanded CD34+ cells were determined on days 4, 7, 10, 14, 17, and 21 by flow cytometry as described in Example 1.3.

Cl.Cn1nnc(-c2ccc3c(c2)[nH]c2nc(Cc4ccccc4)nc(N[C@H]4CC[C@H](N)CC4)c23)n1 [PIC, (1r,4r)-N1-(2-benzyl-7-(2-methyl-2H-tetrazol-5-yl)-9H-pyrimido[4,5-b]indol-4-yl)cyclohexane-1,4-diamine hydrochloride]
purity of CD34+/CD41+ cells ([1]; 39° C. + PIC 35 nM, data not shown): above 40%
Percentage of cells bearing CD34+ ([1]; Day 6, 37° C. + PIC 35 nM): 98.38%
Percentage of cells bearing CD34+/CD41+ ([1]; Day 6, 37° C. + PIC 35 nM): 29.54%
Percentage of cells bearing CD34+/CD41− ([1]; Day 6, 37° C. + PIC 35 nM): 68.55%
Percentage of cells bearing CD41+ ([1]; Day 6, 37° C. + PIC 35 nM): 29.27%
Percentage of cells bearing CD41+/CD42+ ([1]; Day 6, 37° C. + PIC 35 nM): 1.71%
Percentage of cells bearing CD42+ ([1]; Day 6, 37° C. + PIC 35 nM): 2.48%
Percentage of cells bearing CD45RA+ ([1]; Day 6, 37° C. + PIC 35 nM): 71.55%
Percentage of cells bearing CD235+ ([1]; Day 6, 37° C. + PIC 35 nM): 11.67%
Percentage of cells bearing CD34+ ([1]; Day 6, 39° C. + PIC 35 nM): 97.19%
Percentage of cells bearing CD34+/CD41+ ([1]; Day 6, 39° C. + PIC 35 nM): 48.85%
Percentage of cells bearing CD34+/CD41− ([1]; Day 6, 39° C. + PIC 35 nM): 48.02%
Percentage of cells bearing CD41+ ([1]; Day 6, 39° C. + PIC 35 nM): 49.84%
Percentage of cells bearing CD41+/CD42+ ([1]; Day 6, 39° C. + PIC 35 nM): 7.95%
Percentage of cells bearing CD42+ ([1]; Day 6, 39° C. + PIC 35 nM): 8.31%
Percentage of cells bearing CD45RA+ ([1]; Day 6, 39° C. + PIC 35 nM): 58.97%
Percentage of cells bearing CD235+ ([1]; Day 6, 39° C. + PIC 35 nM): 19.51%
Percentage of cells bearing CD34+ ([1]; Day 10, 37° C. + PIC 35 nM): 84.39%
Percentage of cells bearing CD34+/CD41+ ([1]; Day 10, 37° C. + PIC 35 nM): 20.21%
Percentage of cells bearing CD34+/CD41− ([1]; Day 10, 37° C. + PIC 35 nM): 64.40%
Percentage of cells bearing CD41+ ([1]; Day 10, 37° C. + PIC 35 nM): 24.84%
Percentage of cells bearing CD41+/CD42+ ([1]; Day 10, 37° C. + PIC 35 nM): 1.30%
Percentage of cells bearing CD42+ ([1]; Day 10, 37° C. + PIC 35 nM): 2.55%
Percentage of cells bearing CD45RA+ ([1]; Day 10, 37° C. + PIC 35 nM): 76.43%
Percentage of cells bearing CD235+ ([1]; Day 10, 37° C. + PIC 35 nM): 7.45%
Percentage of cells bearing CD34+ ([1]; Day 10, 39° C. + PIC 35 nM): 87.29%
Percentage of cells bearing CD34+/CD41+ ([1]; Day 10, 39° C. + PIC 35 nM): 67.10%
Percentage of cells bearing CD34+/CD41− ([1]; Day 10, 39° C. + PIC 35 nM): 21.37%
Percentage of cells bearing CD41+ ([1]; Day 10, 39° C. + PIC 35 nM): 73.31%
Percentage of cells bearing CD41+/CD42+ ([1]; Day 10, 39° C. + PIC 35 nM): 17.09%
Percentage of cells bearing CD42+ ([1]; Day 10, 39° C. + PIC 35 nM): 17.30%
Percentage of cells bearing CD45RA+ ([1]; Day 10, 39° C. + PIC 35 nM): 46.94%
Percentage of cells bearing CD235+ ([1]; Day 10, 39° C. + PIC 35 nM): 14.40%
Percentage of cells bearing CD34+ ([1]; Day 14, 37° C. + PIC 35 nM): 69.53%
Percentage of cells bearing CD34+/CD41+ ([1]; Day 14, 37° C. + PIC 35 nM): 11% and 11.01%
Percentage of cells bearing CD34+/CD41− ([1]; Day 14, 37° C. + PIC 35 nM): 54.97%
Percentage of cells bearing CD41+ ([1]; Day 14, 37° C. + PIC 35 nM): 23.65%
Percentage of cells bearing CD42+ ([1]; Day 14, 37° C. + PIC 35 nM): 3.02%
Percentage of cells bearing CD45RA+ ([1]; Day 14, 37° C. + PIC 35 nM): 61.90%
Percentage of cells bearing CD235+ ([1]; Day 14, 37° C. + PIC 35 nM): 2.90%
Percentage of cells bearing CD34+ ([1]; Day 14, 39° C. + PIC 35 nM): 88.56%
Percentage of cells bearing CD34+/CD41+ ([1]; Day 14, 39° C. + PIC 35 nM): 76.5% and 76.46%
Percentage of cells bearing CD34+/CD41− ([1]; Day 14, 39° C. + PIC 35 nM): 10.25%
Percentage of cells bearing CD41+ ([1]; Day 14, 39° C. + PIC 35 nM): 87.90%
Percentage of cells bearing CD42+ ([1]; Day 14, 39° C. + PIC 35 nM): 27.09%
Percentage of cells bearing CD45RA+ ([1]; Day 14, 39° C. + PIC 35 nM): 27.09%
Percentage of cells bearing CD235+ ([1]; Day 14, 39° C. + PIC 35 nM): 12.61%
Percentage of cells bearing CD41+/CD42+ ([1]; Day 14, 39° C. + PIC 35 nM, hydrochloride): 27% and 27.04%
expansion of CD34+/CD45RA− LT-HSCs ([2]; 39° C. + PIC 35 nM, FIG. 3B): potently enhanced
Percentage of cells bearing CD34+ ([2]; Day 4, 37° C. + PIC 35 nM): 97.91%
Percentage of cells bearing CD34+/CD41+ ([2]; Day 4, 37° C. + PIC 35 nM): 12.51%
Percentage of cells bearing CD34+/CD235+ ([2]; Day 4, 37° C. + PIC 35 nM): 4.83%
Percentage of cells bearing CD41+ ([2]; Day 4, 37° C. + PIC 35 nM): 12.53%
Percentage of cells bearing CD42+ ([2]; Day 4, 37° C. + PIC 35 nM): 1.08%
Percentage of cells bearing CD45RA+ ([2]; Day 4, 37° C. + PIC 35 nM): 65.34%
Percentage of cells bearing CD235+ ([2]; Day 4, 37° C. + PIC 35 nM): 4.87%
Percentage of cells bearing CD34+ ([2]; Day 4, 39° C. + PIC 35 nM): 94.74%
Percentage of cells bearing CD34+/CD41+ ([2]; Day 4, 39° C. + PIC 35 nM): 8.37%

From US11666600B2, “Methods for culturing and/or differentiating hematopoietic stem cells into progenitors and uses thereof” (HEMA-QUEBEC, priority 2015, dated 2023)
